Measured values taken from ChEMBL document CHEMBL5244246, “Recent advances in chemistry and bioactivity of marine cyanobacteria Moorea species” (Eur J Med Chem, 2020).
≈ marks a conversion by molar mass, not a printed value.

How the values were obtained:
MCF7 = test: Cytotoxicity against human MCF7 cells assessed as inhibition of cell growth; type: functional, cell-based
Tubulin (Homo sapiens) = Tubulin (Homo sapiens) (UniProt P68371+Q9H4B7+P0DPH7+P68366+Q13509+Q71U36+P04350+Q3ZCM7+P07437+P68363+Q9BQE3+Q6PEY2+Q13885+Q9BVA1+Q9BUF5); test: Inhibition of colchicine binding to tubulin (unknown origin) assessed inhibition rate at 5 uM relative to control; type: protein-complex assay
[1] = Toxicity in brine shrimp assessed as lethal dose; settings: artemia salina
U-251 = test: Cytotoxicity against human U-251MG cells; type: functional, cell-based
HCT-116 = test: Cytotoxicity against human HCT-116 cells assessed as inhibition of cell growth; type: functional, cell-based
[2] = Toxicity in mouse assessed as lethal dose; settings: in vivo
N2a = test: Cytotoxicity against mouse Neuro2a cells assessed as inhibition of cell growth; type: functional, cell-based; settings: Mus musculus, N2a
NCI-H460 = test: Cytotoxicity against human NCI-H460 cells; type: functional, cell-based
[3] = Toxicity in goldfish assessed as survival rate at 5 ppm measured after 90 mins relative to control; settings: carassius auratus
[4] = Toxicity in brine shrimp; settings: artemia salina; read-out: ED50 (the source's name)
[5] = Toxicity in goldfish assessed as lethal dose; settings: carassius auratus
Neuro2a = test: Inhibition of sodium channel in mouse Neuro2a cells; type: cell-based
Echinoidea = test: Antiproliferative activity against sea urchin fertilized embryo assessed as inhibition of cell division; type: functional, organism-based
Homo sapiens [6] = species on record: Homo sapiens; test: Activation of Voltage-gated sodium channel (unknown origin) at 3 ug/ml incubated for 18 hrs by cell-based bioassay relative to control; settings: dose 3.0 µg/ml
Homo sapiens [7] = species on record: Homo sapiens; test: Inhibition of Voltage-gated sodium channel (unknown origin) at 3 ug/ml incubated for 18 hrs by cell-based bioassay relative to control; settings: dose 3.0 µg/ml
L1210 = test: Cytotoxicity against mouse L1210 cells assessed as inhibition of cell growth; type: functional, cell-based
Nitzschia amabilis = test: Growth inhibition of marine diatom assessed as inhibition; type: functional, organism-based
HeLa [8] = test: Cytotoxicity against human HeLa cells assessed as inhibition of cell growth incubated for 72 hrs by MTT assay; type: functional, cell-based
A549 = test: Cytotoxicity against human A549 cells assessed as cell growth inhibition; type: functional, cell-based
P388 = test: Cytotoxicity against mouse P388 cells assessed as inhibition of cell growth; type: functional, cell-based
PC-3 = test: Cytotoxicity against human PC-3 cells assessed as cell growth inhibition; type: functional, cell-based
HCT-8 = test: Cytotoxicity against human HCT-8 cells assessed as cell growth inhibition; type: functional, cell-based
SK-OV-3 = test: Cytotoxicity against human SK-OV-3 cells assessed as cell growth inhibition; type: functional, cell-based
Plasmodium falciparum = test: Antimalarial activity against Plasmodium falciparum assessed as growth inhibition; type: functional, organism-based
Pseudomonas aeruginosa = test: Antibacterial activity against Pseudomonas aeruginosa PA01 assessed as inhibition of swarming at 100 ppm relative to control; type: functional
PANC-1 = test: Cytotoxicity against human PANC-1 cells; type: functional, cell-based
[9] = Toxicity in brine shrimp assessed as lethality at 10 ppm relative to control; settings: artemia salina, read-out: Activity
[10] = Toxicity in goldfish assessed as lethality at 5 ppm relative to control; settings: carassius auratus, read-out: Activity
HeLa [11] = test: Cytotoxicity against human HeLa cells assessed as inhibition of cell growth incubated for 48 hrs by WST-8 colorimetric assay; type: functional, cell-based
LoVo = test: Cytotoxicity against human LoVo cells; type: functional, cell-based
KB = test: Cytotoxicity against human KB cells; type: functional, cell-based
Tubulin = test: Inhibition of tubulin polymerization (unknown origin) by tubulin polymerization assay; type: protein-complex assay, Homo sapiens
CA46 = test: Cytotoxicity against human CA46 cells assessed as inhibition of cell growth; type: functional, cell-based
[12] = Antiproliferative activity against CHO-AUXB1 cells; type: toxicity, cell-based; settings: Chinese hamster (Cricetulus griseus)
[13] = read-out: LD50 (the source's name)

For `C=CCC(CC/C=C/C=C/CC/C=C\C1CSC([C@@H]2C[C@@H]2C)=N1)OC` (stereo partly specified), which IC50 (MCF7) is on record?
The IC50 was 340 nM.

What about the inhibition (Tubulin (Homo sapiens)) of the same compound?
The inhibition was 53%.

And the LC50 [1, 13]?
Its LC50 is 15600 nM.

For `CCCC[C@@H](C)C[C@@H](C)C(=O)N(C)[C@@H](Cc1ccc(OC)cc1)C(=O)N[C@H](C(=O)N(C)[C@H](C(=O)N1CCC[C@H]1C(=O)N1C(=O)C=C[C@@H]1C)C(C)C)[C@@H](C)OC(C)=O`, which IC50 (U-251) is on record?
Its IC50 is 36.8 nM.

For `CC[C@H](C)[C@@H]1NC(=O)CNC(=O)c2csc(n2)[C@H](C(C)(C)O)OC(=O)C(C)(C)[C@H](CCCC(C)(Cl)Cl)OC(=O)c2csc1n2` [LYNGBYABELLIN A], which IC50 (HCT-116) is on record?
The IC50 was 52.1 nM.

What about the LD [2] of the same compound?
Its LD is 2.4 mg/kg.

With `CCCCC(C)C1C[C@@H](O)CCC[C@H](O)C[C@@H](O)C[C@@H](O)CCCC(O)CCCC(O)CCCC(O)CCCC(O)CCCC(O)CC(C)CC(=O)O1` (stereo partly specified) as the compound, how does the IC50 (HCT-116) read?
The IC50 was 9900 nM.

With `C#CCCC/C(=C/Cl)CCC(C)/C=C/CCC(=O)NCC/C(=C\C(=O)N1C(=O)C=C[C@@H]1C)OC` (stereo partly specified) as the compound, how does the IC50 (N2a) read?
The IC50 was 15000 nM.

What about the IC50 (NCI-H460) of the same compound?
Its IC50 is 15000 nM.

And the survival at 1.5 h, 5 ppm [3]?
Its survival at 1.5 h, 5 ppm is 0%.

Which LC50 [1, 13] does the source give for `O=CNC(CCCC#CC=C(Cl)Cl)CCC/C=C/CC(Cl)Cl` (stereo unspecified) here?
Its LC50 is 1.7 µg/mL.

And the LC50 [4]?
The LC50 was 1 µg/mL (≈ 2.6 µM).

Which results are given for `C=C[C@@H]1CSC(C[C@@H](C)[C@@H](C)C[C@H](C)CCN(C)C(=O)[C@H](C)CC)=N1`?
LC50 ([1]; read-out: LC50): 170 nM; LC50 [5]: 700 nM; INH (Neuro2a): 1 nM; IC50 (Echinoidea): 25 nM

With `CC[C@H](C)[C@H]1C(=O)N2CCC[C@H]2C(=O)O[C@H](C(C)(C)C)C[C@@H](C)C/C=C/C2=N[C@@H](CCC(=O)N[C@@H](Cc3ccc(OC)cc3)C(=O)N(C)[C@@H](C)C(=O)N1C)CS2` [APRATOXIN E] as the compound, how does the IC50 (HCT-116) read?
Its IC50 is 100 nM.

Which results are given for `CCCCCCCC[C@@H](C/C=C/CCC(=O)NC/C(=C/Cl)C1=CCC[C@@H](OC(C)=O)C1=O)OC`?
IC50 (N2a): 4000 nM; IC50 (NCI-H460): 4000 nM; Activity (Homo sapiens [6]): 19%; inhibition (Homo sapiens [7]): 28%

Which results are given for `CO[C@@H](CC[C@H](C)[C@@H](O)[C@@H](C)/C=C/C1=C(C(=O)O[C@@H]2CC(=O)O[C@@H]2C)C(=O)[C@H](C)CC1(C)C)c1cc(O)ccc1Br`?
IC50 (L1210): 4.6 µg/mL; IC50 (Nitzschia amabilis): 1.2 µg/mL (≈ 1.89 µM)

For `CC/C(=C\C(=O)N(C)/C=C\CCC[C@H]1CC[C@H](C)C[C@@H](C)C(=O)N(C)[C@@H](CC(C)C)C(=O)O1)OC`, which IC50 (HeLa [8]) is on record?
The IC50 was 2500 nM.

With `CC[C@@H](C)[C@@H]1NC(=O)CN(C)C(=O)[C@@H](Cc2ccccc2)N(C)C(=O)[C@H](C)NC(=O)[C@@H]([C@@H](C)CC)OC(=O)/C(C)=C/C[C@H](O)[C@@H](C)C[C@H]([C@@H](C)CC)OC(=O)[C@H](C)N(C)C1=O` as the compound, how does the IC50 (A549) read?
Its IC50 is 2.1 nM.

And the IC50 (P388)?
The IC50 was 2.1 nM.

And the IC50 (PC-3)?
Its IC50 is 2.1 nM.

And the IC50 (HCT-8)?
Its IC50 is 2.1 nM.

And the IC50 (SK-OV-3)?
Its IC50 is 2.1 nM.

And the IC50 (Plasmodium falciparum)?
Its IC50 is 290 nM.

What about the inhibition at 100 µg/mL (Pseudomonas aeruginosa) of the same compound?
The inhibition at 100 µg/mL was 49%.

Which LC50 [5] does the source give for `C=C1CC(=O)N[C@@H](C)C(=O)N(C)[C@@H](C(C)C)C(=O)NCC(=O)O[C@@H](/C(C)=C/C(C)=C/C(C)(C)C)[C@@H]1C` [ANTILLATOXIN] here?
The LC50 was 100 nM.

For `CCCC[C@@H](C)C[C@@H](C)C(=O)N(C)[C@@H](Cc1ccc(OC)cc1)C(=O)N[C@H](C(=O)N(C)[C@H](C(=O)N1C[C@@H](O)C[C@H]1C(=O)N1C(=O)C=C[C@@H]1C)C(C)C)[C@@H](C)OC(C)=O`, which IC50 (PANC-1) is on record?
The IC50 was 0.32 nM.

With `O=CNC(CCCC#C/C=C\Cl)CCC/C=C\C=C(Cl)Cl` (stereo unspecified) as the compound, how does the LC50 [1, 13] read?
The LC50 was 1.7 µg/mL.

And the LC50 [4]?
The LC50 was 1 µg/mL (≈ 2.87 µM).

With `O=CNC(CCCC#CC=C(Cl)Cl)CCCCCCC(Cl)Cl` (stereo unspecified) as the compound, how does the LC50 [1, 13] read?
Its LC50 is 1.7 µg/mL.

And the LC50 [4]?
The LC50 was 1 µg/mL (≈ 2.58 µM).

For `C=CCCC/C(=C/Cl)CCC(C)/C=C/CCC(=O)NCC/C(=C\C(=O)N1C(=O)C=C[C@@H]1C)OC` (stereo partly specified), which IC50 (N2a) is on record?
Its IC50 is 15000 nM.

And the IC50 (NCI-H460)?
Its IC50 is 15000 nM.

And the mortality at 10 ppm [9]?
Its mortality at 10 ppm is 25%.

And the mortality at 5 ppm [10]?
Its mortality at 5 ppm is 100%.

Which IC50 (N2a) does the source give for `CC[C@@H](C)[C@H]1C(=O)N2CCC[C@H]2C(=O)O[C@H](C(C)(C)C)C[C@@H](C)C[C@H](O)[C@H](C)C2=N[C@@H](/C=C(\C)C(=O)N[C@@H](Cc3ccc(OC)cc3)C(=O)N(C)[C@@H](C)C(=O)N1C)CS2` here?
The IC50 was 1000 nM.

And the IC50 (HeLa [11])?
The IC50 was 190 nM.

What about the IC50 (LoVo) of the same compound?
Its IC50 is 0.36 nM.

What about the IC50 (KB) of the same compound?
Its IC50 is 0.36 nM.

Which IC50 (L1210) does the source give for `C=CCC(CC/C(C)=C/C=C/CC/C=C\C1CSC([C@@H]2C[C@@H]2C)=N1)OC` (stereo partly specified) here?
The IC50 was 9 nM.

And the inhibition (Tubulin (Homo sapiens))?
Its inhibition is 94%.

And the IC50 (Tubulin)?
The IC50 was 690 nM.

And the IC50 (CA46)?
The IC50 was 200 nM.

And the LC50 ([1]; read-out: LC50)?
The LC50 was 0.003 µg/mL.

What about the IC50 [12] of the same compound?
Its IC50 is 0.0068 µg/mL (≈ 0.0182 µM).
